# Laboratory results from publication PMC10610545, “Preclinical Evaluation of an Imidazole-Linked Heterocycle for Alzheimer’s Disease” (Pharmaceutics, 2023).
# Assays:
# [1] = Pharmacokinetics of LSL33 in CD1 mice (plasma and brain)
# Experimental: The pharmacokinetic study was carried on in male CD1 mice (Envigo Laboratories) with a body
# weight between 40 to 50 g (n = 3-4 per group). Animals were randomized to be included in the
# treated or control groups. A single intraperitoneal dose of LSL33 (2 mg/kg, 10 ml/kg) was
# administered early in the morning (between 8 and 11 a.m.) without anaesthesia. Compound was
# monitored for signs of pain or distress during the time between injection and euthanasia. Mice
# were sacrificed by cervical dislocation and blood (0.6 mL) was collected at different time points
# in tubes with serum gel and clotting activator (Sarstedt Micro tube 1.1 mL Z-Gel). Samples were
# centrifugated at 10.000 rpm for 10 min to obtain plasma and stored at -80 °C up to analysis of
# compound concentration by UPLC-MS/MS.
# 5XFAD mice = experiment: Novel object recognition test (NORT) in 5XFAD mice; assay type: in vivo, mouse; conditions: 2 mg/Kg in drinking water, 4 weeks, vs 5XFAD Control
# Experimental: Four-month-old female and male Wt and 5XFAD mice (n = 32) were used to carry out cognitive and molecular analyses. […] The animals had free access to food and water and were kept under standard temperature conditions (22 ± 2 °C) and 12 h/12 h light/dark cycles (300 lx/0 lx). […] After 4 weeks of treatment, cognitive tests, including short- and long-term memory and OLT, were performed to study the effects of treatment on learning and memory. Weight and water consumption were controlled each week, and the LSL33 concentration was adjusted accordingly to reach the optimal dose until euthanasia.
# Short- and long-term recognition memories involving cortical areas and the hippocampus were evaluated by NORT. The experimental apparatus used for this test was a 90-degree, two-arm, 25-cm-long, 20-cm-high maze of black polyvinyl chloride. The light intensity in the middle of the field was 30 lux. First, mice were individually habituated to the apparatus for 10 min per day for 3 days. On day 4, the animals were allowed to freely explore two identical objects (A and A or B and B) placed at the end of each arm for a 10 min acquisition trial (first trial-familiarization). […] During the short-term memory retention test, the time that the animal spent exploring the new object (TN) and the old object (TO) was recorded. […] TN and TO were measured from the video recordings from each trial session. […]
# [2] = Metabolic stability in human liver microsomes; assay type: in vitro ADME
# Experimental: The objective of this study was to evaluate the metabolic stability of LSL33 and its depletion rate in the presence of HLM. This was achieved by incubating LSL33 with microsomes and monitoring parent disappearance using LC/MSMS (Table S6).
# Metabolic stability of LSL33 in human liver microsomes
# The reaction was initiated by adding HLM (1 mg/mL) to an equal volume of buffer solution containing the test compound and cofactors at the proper concentrations. Reactions without NADPH were also incubated to rule out non-NADPH metabolism or chemical instability in the […]
# incubation course. All reactions were terminated using 60 µL of ice-cold acetonitrile at 0, 5, 15, […]
# 30, 45, and 60 min. […] All experiments were conducted in triplicate. Samples were monitored to parent compound disappearance by LC-MS in MRM mode according to a quantitation method for each compound.
# LSL33 was dissolved in DMSO at 0.5 mg/mL. Assay conditions, total incubation volume 400 µL, protein concentration 1 mg/mL, NADPH, 1.3 mM. Preparation of reagents: Test compound, the final concentration in the assay. […]
# prepared by dissolving appropriate amount of N ADPH in 100 mM potassium phosphate buffer. […]
# from Sigma-Aldrich, Germany. The equipment needed for the study was Beckman Coulter […]
# injector, Api4000 Mass Spectrometer.
# Bio-Analysis: Samples were monitored for parent compound disappearance by LC-MS in MRM mode according to a previously verified quantitation method for each compound.
# Data Analysis: The peak area of analyte was used to calculate the percentage of remaining compound at each incubation time (Table S7). The natural logarithm of the percentage of reamining LSL33 was plotted versus incubation time to calculate the half -life using the following […]
# time) see Table S8 and Figure S11 . Intrinsic clearance was determined by the following equation:
# CLint H = Ln 2/t1/2 (min) x volume incubation (mL)/microsomal protein (mg) x 45 (MPPGL) 1500 g human liver/ 70 Kg human body weight. Units for CL int are usually expressed as mL/min/mg microsomal protein (table S8), MPPGL = referred to as mg microsomal protein per gram liver.
# The categories classification
# Table S6. Summary of LC-MS conditions
# Ionization Mode Electrospray positive
# Sample matrix Microsomes+ NADPH + buffer […]
# Mobile phase [Water: Acetonitrile :0.1% Formic Acid]
# [3] = male, CD1, mouse, brain, po, 2 mg/kg
# [4] = male, CD1, mouse, plasma, oral, 2 mg/kg
compound,measurement,setting,value
"Cl.c1ccc2sc(-c3ncc[nH]3)cc2c1 [LSL33, 2-(Benzo[b]thiophene-2-yl)-1H-imidazole hydrochloride]",concentration at 15 min,[1]; [3],15.2 ng/g
same,concentration at 30 min,[1]; [3],6.7 ng/g
same,AUC(0-inf),[1]; [4],3050 ng·h/mL
same,AUC(0-t),[1]; [4],2950 ng·h/mL
same,Cmax,[1]; [4],950 ± 620 ng/mL
same,Tmax,[1]; [4],15 min
same,half-life,"[1]; male, CD1, mouse, plasma, oral, 2 mg/kg, t1/2β (terminal elimination half-life), CD1 mice, single 2 mg/kg dose",313 min
same,AUC0-1440/AUC0-∞ ratio,"[1]; plasma, 2 mg/kg",0.97
same,t1/2β (terminal elimination half-life),"[1]; plasma, CD1 mice, single 2 mg/kg dose, 2 mg/kg",312.81 ± 34.90 min
same,maximum mean concentration in plasma as share of the drug administered,[1]; single oral dose,≤ 1%
same,"NORT discrimination index, short- and long-term memory",5XFAD mice,significant improvement in cognitive impairment in both short- and long-term memories
same,hepatic clearance category,[2]; HLM intrinsic clearance bands,high
same,% Compound Remaining,"[2]; HLM, minus NADPH, 0 min",100.0 ± 10.2%
same,% Compound Remaining,"[2]; HLM, minus NADPH, 60 min",96.6 ± 9.0%
same,% Compound Remaining,"[2]; HLM, plus NADPH, 0 min",100.0±9.0%
same,% Compound Remaining,"[2]; HLM, plus NADPH, 5 min",4.6 ± 0.4%
same,% Compound Remaining,"[2]; HLM, plus NADPH, 15 min",0.1 ± 0.1%
same,% Compound Remaining,"[2]; HLM, plus NADPH, 30 min",0.2 ± 0.1%
same,% Compound Remaining,"[2]; HLM, plus NADPH, 45 min",1.3 ± 0.2%
same,% Compound Remaining,"[2]; HLM, plus NADPH, 60 min",0.2 ± 0.3%
same,half-life,"[2]; human, human liver microsomes, HLM",1.58 min
